For data set [1], the target named is Human recombinant cathepsin D (Homo sapiens (Human), UniProt P07339). Nature of the data set: Cathepsin D activity assay. It counts as biochemical. As to conditions: read-out: CatD IC50.
Description: The development of a CatD activity assay is used to determine any potential cross reactivity for compounds selected from the β-secretase activity assay and to determine the selectivity to BACE1 inhibition. The CatD activity is reported for assessing target selectivity ratio (CatD IC50/BACE1 IC50).
The reagents for the cathepsin D assay were prepared as follows.
Human recombinant cathepsin D stored frozen in 2.0 μl aliquots was thawed and 42 μl of enzyme buffer (0.1M NaOAC, 0.2 M NaCl, pH 3.5) was added and incubated at 37° C. for 30 minutes. After 30 minutes the enzyme was further diluted to a final volume of 4.4 ml in enzyme buffer containing 5.0 mM DTT for immediate use in the cathepsin D assay.
The 7-methoxycoumarin-labeled peptide substrate (ES010) for cathepsin D was supplied as a 6.2 mM stock in DMSO. For use in the cathepsin D assay, the 6.2 mM stock was diluted to a 1.55 mM stock with DMSO. The 1.55 mM peptide stock in DMSO was further diluted 1:100 in reaction buffer (0.1M NaOAC, 0.2M NaCl, 0.1% Tween 20, 5.0 mM DTT, pH3.5) to create a 15.5 μM stock for use in the assay.
DMSO without compound served as a DMSO vehicle control for the cathepsin D assay. For each test compound, 30 μl of each dilution was pipetted into a separate well of a 96-well polypropylene plate. This polypropylene plate was labeled as the DMSO dilution plate and a plate map of test compound locations was made.
Test compounds from the DMSO dilution plate require a 1:100 dilution into reaction buffer before they can be added to the cathepsin D assay plate. To accomplish the 1:100 dilution of test compounds, 2.0 μl of each test compound at each concentration was pipetted from the DMSO dilution plate (using a multi-channel pipette calibrated to accurately dispense a 2.0 μl volume) into a new 96-well polypropylene plate using the plate map created for the DMSO dilution plate. This 96-well plate served as the inhibitor dilution plate. Next, 198 μl of reaction buffer was pipetted into each well of the inhibitor dilution plate (using a multi-channel pipette calibrated for accurate delivery of a 198 μl volume) and the pipetted test compound mixed by gentle up and down pipetting.
A1.0 mM stock of pepstatin A was made in DMSO and aliquotted into 5.0 μl samples for freezing and storage at −20° C. Upon thawing, 45 μl of DMSO (1:10 dilution) was added to create a 100 μM stock of pepstatin A in DMSO. The 100 μM Pepstatin A stock was further diluted 1:10 with DMSO to create a 10 μM stock in DMSO. […]
The assay plate was placed into a fluorescent plate reader with the excitation wavelength set at 320 nm and the emission wavelength set at 405 nm. Readings were collected every minute over a 30 minute collection period.
The target in data set [2] is BACE1 (recombinant β-secretase enzyme) (Homo sapiens (Human), UniProt P56817). Nature of the data set: AnaSpec BACE1 fluorescent assay (beta-secretase activity assay). The class given is biochemical. As for the experimental part: A BACE1 activity assay kit from AnaSpec (Fremont, Calif.) was used to determine the potency of the selected BACE1 inhibitors by AnaSpec BACE1 fluorescent assay. The recombinant β-secretase enzyme was diluted 1:200 in 1× assay buffer (1 part of 1× assay buffer and 1 part of TBS containing 0.1% Tween 20). The enzyme was added in a volume of 40 μl to each well of a black 96-well micro plate.
The BACE1 inhibitors were serially diluted into DMSO from their 10 mM stock concentrations in DMSO. The serially diluted inhibitors were diluted 1:100 into 1× assay buffer in a 96-well polypropylene plate (assay dilution plate). The final concentration of the BACE1 inhibitor tested was 300 nM, 100 nM, 30 nM, 10 nM, 3 nM, 1 nM 0.3 nM, and 0.00 nM. Dose responses for inhibitors were run in duplicate.
A volume of 10 μl of the inhibitor from the assay dilution plate, a control inhibitor LY2886721 or inhibitor vehicle was then added to each well of the black 96-well micro plate containing BACE1.
To each well of the black 96-well micro plate, 50 μl of the β-secretase substrate (Hylite Fluor 488) diluted 1:100 using assay buffer was added. The reagents were mixed gently and the assay plate was placed into a POLARstar fluorescent plate reader with excitation wavelength set at 485 nm and the emission wavelength set at 520 nm. The plate reader was set to take readings every 5 minutes for up to 30 minutes or a 30 minute endpoint reading was used.
An appropriate integrated first-order rate equation was used to fit the data accumulated over a 30-40 minute collection period.

A further data set concerns the target recombinant BACE2 (Homo sapiens (Human), UniProt Q9Y5Z0). Nature of the data set: AnaSpec BACE2 fluorescent assay. It counts as biochemical. As for the experimental part:
A BACE2 activity assay kit from AnaSpec (Fremont, Calif.) was used to determine the potency of the selected compounds by AnaSpec BACE2 fluorescent assay. To each well of a black 96-well micro plate, 50 μl of the β-secretase substrate (Hylite Fluor 488) diluted 1:100 using assay buffer was first added.
The compounds were serially diluted (1:2) into DMSO from their 10 mM stock concentrations in DMSO. The serially diluted inhibitors were diluted 1:100 into 1× assay buffer in a 96-well polypropylene plate (assay dilution plate). The final concentration of these compounds tested was 300 nM, 150 nM, 75 nM, 37.5 nM, 18.75 nM, 9.375 nM, 4.688 nM, 2.344 nM, 1.172 nM, 0.586 nM, and 0.293 nM.
A volume of 10 μl of the inhibitor from the assay dilution plate, a control inhibitor LY2886721 or inhibitor vehicle was then added to each well of the black 96-well micro plate.
The recombinant BACE2 was diluted in an assay buffer and the final BACE2 was 10.6 nM. The enzyme was added in a volume of 40 μl to each well of a black 96-well micro plate.
The reagents were mixed gently and the assay plate was placed into a POLARstar fluorescent plate reader with excitation wavelength set at 485 nm and the emission wavelength set at 520 nm. The plate reader was set to take readings every 5 minutes for up to 30 minutes or a 30 minute endpoint reading was used.
An appropriate integrated first-order rate equation was used to fit the data accumulated over a 30-40 minute collection period. Dose responses for inhibitors were run in duplicate.

For data set [3] the following is noted: animal toxicology study; cited from earlier work.
The conditions of data set [4]: in humans; cited from earlier work.
In data set [5] the test system is CSF Aβ40, Aβ42 and soluble APPβ. As to conditions: AD patients, reported by Merck; cited from earlier work.

The values that follow come from patent US10870635B2, “Compounds and their use as BACE1 inhibitors” (ALLGENESIS BIOTHERAPEUTICS, INC., priority 2015, dated 2020).

A word on the IC50: it is the point on the concentration scale where inhibition reaches its midpoint.

Sequence of BACE1 (recombinant β-secretase enzyme) (P56817 46-501): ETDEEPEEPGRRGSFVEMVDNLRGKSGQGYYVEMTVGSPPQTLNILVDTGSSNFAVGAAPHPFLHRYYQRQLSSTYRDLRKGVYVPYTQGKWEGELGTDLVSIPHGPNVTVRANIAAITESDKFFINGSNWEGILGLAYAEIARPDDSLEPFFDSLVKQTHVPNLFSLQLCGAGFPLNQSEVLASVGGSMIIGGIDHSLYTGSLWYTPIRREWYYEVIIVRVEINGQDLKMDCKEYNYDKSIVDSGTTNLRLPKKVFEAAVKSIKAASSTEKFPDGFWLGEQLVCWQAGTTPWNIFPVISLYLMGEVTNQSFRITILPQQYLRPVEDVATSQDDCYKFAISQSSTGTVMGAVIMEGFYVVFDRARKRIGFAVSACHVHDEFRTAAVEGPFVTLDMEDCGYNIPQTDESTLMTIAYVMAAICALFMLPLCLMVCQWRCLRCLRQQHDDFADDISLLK
Sequence of recombinant BACE2 (Q9Y5Z0 63-518): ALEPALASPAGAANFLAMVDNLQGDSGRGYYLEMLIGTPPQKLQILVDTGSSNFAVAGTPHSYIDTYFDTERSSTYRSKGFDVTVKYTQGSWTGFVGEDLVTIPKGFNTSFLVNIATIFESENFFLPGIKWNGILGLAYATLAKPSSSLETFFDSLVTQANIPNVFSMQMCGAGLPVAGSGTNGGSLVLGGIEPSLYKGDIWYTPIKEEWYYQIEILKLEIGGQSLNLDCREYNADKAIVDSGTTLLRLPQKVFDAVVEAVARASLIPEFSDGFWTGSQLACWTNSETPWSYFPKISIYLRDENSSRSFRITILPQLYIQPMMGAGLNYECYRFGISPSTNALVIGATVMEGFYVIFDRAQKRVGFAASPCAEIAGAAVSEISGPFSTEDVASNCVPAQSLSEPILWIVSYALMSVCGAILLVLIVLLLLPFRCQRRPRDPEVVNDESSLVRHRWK
Sequence of Human recombinant cathepsin D (P07339 65-412): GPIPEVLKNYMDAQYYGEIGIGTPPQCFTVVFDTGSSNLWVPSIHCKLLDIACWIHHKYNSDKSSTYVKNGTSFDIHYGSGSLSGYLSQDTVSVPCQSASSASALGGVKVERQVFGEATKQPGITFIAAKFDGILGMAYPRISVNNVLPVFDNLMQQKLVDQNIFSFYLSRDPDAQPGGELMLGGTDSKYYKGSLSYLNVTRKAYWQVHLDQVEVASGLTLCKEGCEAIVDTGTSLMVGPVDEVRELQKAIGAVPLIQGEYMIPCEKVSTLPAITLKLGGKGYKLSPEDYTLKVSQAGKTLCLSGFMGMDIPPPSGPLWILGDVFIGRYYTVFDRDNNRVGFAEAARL

Take `CC#Cc1ccc2sc3ccc([C@]4(C)CC(=O)N(C)C(=N)N4)cc3c2c1` [Example 1, (S)-2-Imino-3,6-dimethyl-6-(8-(prop-1-yn-1-yl)dibenzo[b,d]thiophen-2-yl)tetrahydropyrimidin-4(1H)-one]: the IC50 in data set [1] worked out at 12300 nM; in data set [2] it was 26 nM.

Regarding `CC#Cc1ccc2[nH]c([C@]3(C)CC(=O)N(C)C(=N)N3)c(Cl)c2c1` [Example 38, (S)-6-(3-Chloro-5-(prop-1-yn-1-yl)-1H-indol-2-yl)-2-imino-3,6-dimethyl-tetrahydropyrimidin-4(1H)-one], the IC50 at recombinant BACE2 turned out to be 24 nM; in data set [2], 44 nM.

As to `CC#Cc1ccc2sc3cc(Cl)c([C@]4(C)CC(=O)N(C)C(N)=N4)cc3c2c1` [Example 71, (S)-2-Amino-6-(3-chloro-8-(prop-1-yn-1-yl)dibenzo[b,d]thiophen-2-yl)-3,6-dimethyl-5,6-dihydropyrimidin-4(3H)-one], the IC50 was 23.8 ± 1.52 nM on recombinant BACE2, 3900 nM in data set [1] and 44 nM in data set [2]. Turning to `C[C@@]1(c2cc(-c3cncnc3)c(F)cc2F)CCSC(N)=N1` [LY-2811376], in data set [3], the “toxicity finding leading to discontinuation” value is “retinal toxicity”.

Turning to `NC1=N[C@@]2(c3cc(NC(=O)c4ccc(F)cn4)ccc3F)COC[C@H]2CS1` [LY-2886721], in data set [4], the “toxicity finding leading to termination” value is “liver toxicity”. As for `CN1C(=N)N[C@](C)(c2cc(NC(=O)c3ccc(F)cn3)ccc2F)CS1(=O)=O` [MK-8931], the “effect on CSF Aβ40, Aβ42 and soluble APPβ” value in data set [5] was “reduce CSF Aβ40, Aβ42 and soluble APPβ”.
